Laboratory results from PubChem BioAssay (NCI).
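1) Cells in 96-well plates. 2) Compound, 48 h, 5 concentrations. 3) Linear interpolation between surrounding doses. 4) Unreached endpoint = highest concentration. The concentration for 50% growth inhibition is given as GI50. At the TGI there is no net growth.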

How the values were obtained:
Assay in all cases: DTP human tumour cell line panel, 48 h
[1] = tested on: K-562 leukemia
[2] = tested on: UACC-62 melanoma
[3] = tested on: HCT-116 colon
[4] = tested on: SF-268 CNS
[5] = tested on: HOP-92 NSCLC
[6] = tested on: OVCAR-3 ovarian
[7] = tested on: HS 578T breast
[8] = tested on: PC-3 prostate
[9] = tested on: TK-10 renal
[10] = tested on: SNB-19 CNS
[11] = tested on: MALME-3M melanoma
[12] = tested on: SK-MEL-5 melanoma
[13] = tested on: HL-60(TB) leukemia
[14] = tested on: SW-620 colon
[15] = tested on: SF-295 CNS
[16] = tested on: SF-539 CNS
[17] = tested on: M14 melanoma
[18] = tested on: NCI-H522 lung
[19] = tested on: KM12 colon
[20] = tested on: SK-OV-3 ovarian
[21] = tested on: HOP-62 NSCLC
[22] = tested on: HCC-2998 colon
[23] = tested on: OVCAR-4 ovarian
[24] = tested on: MCF7 breast
[25] = tested on: EKVX NSCLC
[26] = tested on: CCRF-CEM leukemia
[27] = tested on: MDA-MB-468 breast
[28] = tested on: MDA-MB-435
[29] = tested on: SN12C renal
[30] = tested on: OVCAR-8 ovarian
[31] = tested on: HT29 colon
[32] = tested on: SK-MEL-2 melanoma
[33] = tested on: DU-145 prostate
[34] = tested on: MDA-MB-231 breast
[35] = tested on: RXF 393 renal
[36] = tested on: NCI-H23 lung
[37] = tested on: SNB-75 CNS
[38] = tested on: SK-MEL-28 melanoma
[39] = tested on: OVCAR-5 ovarian
[40] = tested on: T-47D breast
[41] = tested on: RPMI-8226 leukemia
[42] = tested on: HCT-15 colon

In the case of CN(CCSSCCN1CCOCC1)C(=O)Oc1cc2c(c3ccccc13)[C@H](CCl)CN2C(=O)c1cc2cc(OCCCN3CCC3)ccc2[nH]1, the GI50 [1] is reported as 75.1 nM, the TGI [1] is reported as 2670 nM and the GI50 [2] is reported as 6.25 nM. The TGI [2] was 32.1 nM, the GI50 [3] was 45.2 nM and the TGI [3] was 5040 nM. The GI50 [4] was 24.4 nM, the TGI [4] was 849 nM and the GI50 [5] was 382 nM. The TGI [5] was 1440 nM, the GI50 [6] was 236 nM and the TGI [6] was 2380 nM. For the same molecule, the GI50 [7] was 178 nM, the TGI [7] was 1100 nM and the GI50 [8] was 39.6 nM. For the same molecule, the TGI [8] was 1770 nM, the GI50 [9] was 971 nM and the TGI [9] was 5810 nM. The GI50 [10] was 6.65 nM, the TGI [10] was 127 nM and the GI50 [11] was 48.1 nM. For the same molecule, the TGI [11] was 123 nM, the GI50 [12] was 6.32 nM and the TGI [12] was 32.1 nM. For the same molecule, the GI50 [13] was 131 nM, the TGI [13] was 1400 nM and the GI50 [14] was 46.4 nM. For the same molecule, the TGI [14] was 2700 nM, the GI50 [15] was 3.04 nM and the TGI [15] was 10.8 nM. It also gave a GI50 [16] of 51.3 nM, a TGI [16] of 123 nM and a GI50 [17] of 10.1 nM. For the same molecule, the TGI [17] was 42.6 nM, the GI50 [18] was 273 nM and the TGI [18] was 1020 nM. For the same molecule, the GI50 [19] was 30.6 nM, the TGI [19] was 5430 nM and the GI50 [20] was 8.67 nM. For the same molecule, the TGI [20] was 101 nM, the GI50 [21] was 2.51 nM and the TGI [21] was 28.8 nM. It also gave a GI50 [22] of 27 nM, a TGI [22] of 102 nM and a GI50 [23] of 615 nM. For the same molecule, the TGI [23] was 2280 nM, the GI50 [24] was 7.52 nM and the TGI [24] was 2640 nM. It also gave a GI50 [25] of 42 nM, a TGI [25] of 134 nM and a GI50 [26] of 102 nM. For the same molecule, the TGI [26] was 9890 nM, the GI50 [27] was 40.2 nM and the TGI [27] was 173 nM. For the same molecule, the GI50 [28] was 36.7 nM, the TGI [28] was 104 nM and the GI50 [29] was 64.9 nM. The TGI [29] was 1440 nM, the GI50 [30] was 24.7 nM and the TGI [30] was 136 nM. For the same molecule, the GI50 [31] was 69.9 nM, the TGI [31] was 25000 nM and the GI50 [32] was 49.4 nM. For the same molecule, the TGI [32] was 95.9 nM, the GI50 [33] was 11.9 nM and the TGI [33] was 2980 nM. It also gave a GI50 [34] of 71.1 nM, a TGI [34] of 178 nM and a GI50 [35] of 40.6 nM. For the same molecule, the TGI [35] was 82.9 nM, the GI50 [36] was 10.1 nM and the TGI [36] was 43.3 nM. The GI50 [37] was 38 nM, the TGI [37] was 173 nM and the GI50 [38] was 29.1 nM. It also gave a TGI [38] of 66.7 nM, a GI50 [39] of 67.5 nM and a TGI [39] of 266 nM. It also gave a GI50 [40] of 287 nM, a TGI [40] of 1700 nM and a GI50 [41] of 473 nM. It also gave a TGI [41] of 5180 nM, a GI50 [42] of 57.4 nM and a TGI [42] of 642 nM.
